# According to patent US20240376056A1, “PHENYL ACETAMIDE BASED IL-17A MODULATORS AND USES THEREOF” (DiCE Alpha, Inc., priority 2021, published 2024):
# Target: T1, IL-17A/A (Homo sapiens, UniProt Q16552)
# T1 construct: purchased Genscript Z03228
# T1 sequence (Q16552 24-155): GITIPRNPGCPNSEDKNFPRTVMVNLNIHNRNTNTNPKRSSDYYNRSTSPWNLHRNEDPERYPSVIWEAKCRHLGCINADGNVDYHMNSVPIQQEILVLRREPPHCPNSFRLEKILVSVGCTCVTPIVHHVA
# Assay: HEK-Blue IL-17A/A inhibition assay (SEAP reporter)
# Assay type: cell-based
# Conditions: HEK-Blue cells (HEK 293 expressing IL-17RA, IL-17RC, Act1); IL-17A/A stimulation; 20 hours; SEAP read at A630; 4-parameter fit
# In short: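 HEK 293 cells engineered with IL-17RA, IL-17RC and Act1 (NFκB-driven SEAP) given titrated compound (top final 10, 1 or 0.3 uM; 0.1% DMSO) just before IL-17A/A, then incubated 20 h. SEAP in media developed with Quanti-Blue, read at A630; IC50 by 4-parameter nonlinear fit.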
row,IC50,Structure (SMILES)
1,> 1000 nM,"CCn1nccc1C(=O)N[C@H](C(=O)Nc1ccc([C@H](C)C(=O)N(C)CC(F)(F)F)cc1F)[C@H](c1ccccc1Cl)C(C)C [Compound 73, N-((2S,3S)-3-(2-chlorophenyl)-1-((2-fluoro-4-((S)-1-(methyl(2,2,2-trifluoroethyl)amino)-1-oxopropan-2-yl)phenyl)amino)-4-methyl-1-oxopentan-2-yl)-1-ethyl-1H-pyrazole-5-carboxamide]"
2,100 to 1000 nM,"CCn1nccc1C(=O)N[C@H](C(=O)Nc1ccc([C@H](C)C(=O)N(C)CC(F)(F)F)cc1F)C1CCC(F)(F)CC1 [Compound 74, N-((S)-1-(4,4-difluorocyclohexyl)-2-((2-fluoro-4-((S)-1-(methyl(2,2,2-trifluoroethyl)amino)-1-oxopropan-2-yl)phenyl)amino)-2-oxoethyl)-1-ethyl-1H-pyrazole-5-carboxamide]"
3,100 to 1000 nM,"CCn1nccc1C(=O)N[C@H](C(=O)Nc1ccc([C@H](C)C(=O)N(C)CC(F)(F)F)cc1F)C1CCC2(CC1)CC2 [Compound 75, 1-ethyl-N-((S)-2-((2-fluoro-4-((S)-1-(methyl(2,2,2-trifluoroethyl)amino)-1-oxopropan-2-yl)phenyl)amino)-2-oxo-1-(spiro[2.5]octan-6-yl)ethyl)-1H-pyrazole-5-carboxamide]"
4,< 100 nM,"CC(C)n1nccc1C(=O)N[C@H](C(=O)Nc1ccc([C@H](C)C(=O)N(C)CC(F)(F)F)cc1F)C(C1CC1)C1CC1 [Compound 78, N-((S)-1,1-dicyclopropyl-3-((2-fluoro-4-((S)-1-(methyl(2,2,2-trifluoroethyl)amino)-1-oxopropan-2-yl)phenyl)amino)-3-oxopropan-2-yl)-1-isopropyl-1H-pyrazole-5-carboxamide]"
5,100 to 1000 nM,"CCn1ncc(F)c1C(=O)N[C@H](C(=O)Nc1ccc([C@H](C)C(=O)N(C)CC(F)(F)F)cc1F)C(C1CC1)C1CC1 [Compound 79, N-((S)-1,1-dicyclopropyl-3-((2-fluoro-4-((S)-1-(methyl(2,2,2-trifluoroethyl)amino)-1-oxopropan-2-yl)phenyl)amino)-3-oxopropan-2-yl)-1-ethyl-4-fluoro-1H-pyrazole-5-carboxamide]"
6,< 100 nM,"CCc1nocc1C(=O)N[C@H](C(=O)Nc1ccc([C@H](C)C(=O)N(C)CC(F)(F)F)cc1F)C(C1CC1)C1CC1 [Compound 80, N-((S)-1,1-dicyclopropyl-3-((2-fluoro-4-((S)-1-(methyl(2,2,2-trifluoroethyl)amino)-1-oxopropan-2-yl)phenyl)amino)-3-oxopropan-2-yl)-3-ethylisoxazole-4-carboxamide]"
7,< 100 nM,"CC(C)n1nccc1C(=O)N[C@H](C(=O)Nc1ccc([C@H](C)C(=O)NCC(F)(F)F)cc1F)C(C1CC1)C1CC1 [Compound 82, N-((S)-1,1-dicyclopropyl-3-((2-fluoro-4-((S)-1-oxo-1-((2,2,2-trifluoroethyl)amino)propan-2-yl)phenyl)amino)-3-oxopropan-2-yl)-1-isopropyl-1H-pyrazole-5-carboxamide]"
8,> 1000 nM,"CCn1ncc(F)c1C(=O)N[C@H](C(=O)Nc1ccc([C@H](C)C(=O)NCC(F)(F)F)cc1F)C(C1CC1)C1CC1 [Compound 83, N-((S)-1,1-dicyclopropyl-3-((2-fluoro-4-((S)-1-oxo-1-((2,2,2-trifluoroethyl)amino)propan-2-yl)phenyl)amino)-3-oxopropan-2-yl)-1-ethyl-4-fluoro-1H-pyrazole-5-carboxamide]"
9,< 100 nM,"CCc1nocc1C(=O)N[C@H](C(=O)Nc1ccc([C@H](C)C(=O)NCC(F)(F)F)cc1F)C(C1CC1)C1CC1 [Compound 84, N-((S)-1,1-dicyclopropyl-3-((2-fluoro-4-((S)-1-oxo-1-((2,2,2-trifluoroethyl)amino)propan-2-yl)phenyl)amino)-3-oxopropan-2-yl)-3-ethylisoxazole-4-carboxamide]"
10,100 to 1000 nM,"CC[C@@H](c1ccc(F)cc1)[C@H](NC(=O)c1ccnn1CC)C(=O)Nc1ccc([C@H](C)C(=O)N(C)CC(F)(F)F)cc1F [Compound 85, -ethyl-N-((2S,3S)-1-((2-fluoro-4-((S)-1-(methyl(2,2,2-trifluoroethyl)amino)-1-oxopropan-2-yl)phenyl)amino)-3-(4-fluorophenyl)-1-oxopentan-2-yl)-1H-pyrazole-5-carboxamide]"
11,100 to 1000 nM,"CCn1nccc1C(=O)N[C@H](C(=O)Nc1ccc([C@H](C)C(=O)NCC(F)(F)F)cc1F)C(C1CCC1)C1CCC1 [Compound 88, N-((S)-1,1-dicyclobutyl-3-((2-fluoro-4-((S)-1-oxo-1-((2,2,2-trifluoroethyl)amino)propan-2-yl)phenyl)amino)-3-oxopropan-2-yl)-1-ethyl-1H-pyrazole-5-carboxamide]"
12,100 to 1000 nM,"C[C@H](C(=O)NCC(F)(F)F)c1ccc(NC(=O)[C@@H](NC(=O)c2ccnn2CCN2CCOCC2)C(C2CC2)C2CC2)c(F)c1 [Compound 89, N-((S)-1,1-dicyclopropyl-3-((2-fluoro-4-((S)-1-oxo-1-((2,2,2-trifluoroethyl)amino)propan-2-yl)phenyl)amino)-3-oxopropan-2-yl)-1-(2-morpholinoethyl)-1H-pyrazole-5-carboxamide]"
13,100 to 1000 nM,"CCn1nccc1C(=O)N[C@H](C(=O)Nc1ccc([C@H](C)C(=O)N(C)CC(F)(F)F)cc1F)[C@H]1CCc2ccccc21 [Compound 90, N-((S)-1-((S)-2,3-dihydro-1H-inden-1-yl)-2-((2-fluoro-4-((S)-1-(methyl(2,2,2-trifluoroethyl)amino)-1-oxopropan-2-yl)phenyl)amino)-2-oxoethyl)-1-ethyl-1H-pyrazole-5-carboxamide]"
14,> 1000 nM,"CCn1nccc1C(=O)N[C@H](C(=O)Nc1ccc([C@H](C)C(=O)N(C)CC(F)(F)F)cc1F)[C@@H]1CCc2ccccc21 [Compound 91, N-((S)-1-((R)-2,3-dihydro-1H-inden-1-yl)-2-((2-fluoro-4-((S)-1-(methyl(2,2,2-trifluoroethyl)amino)-1-oxopropan-2-yl)phenyl)amino)-2-oxoethyl)-1-ethyl-1H-pyrazole-5-carboxamide]"
15,100 to 1000 nM,"C[C@H](C(=O)NCC(F)(F)F)c1ccc(NC(=O)[C@@H](NC(=O)c2ccnn2CCN2CC(F)(F)C2)C(C2CC2)C2CC2)c(F)c1 [Compound 94, N-((S)-1.1-dicyclopropyl-3-((2-fluoro-4-((S)-1-oxo-1-((2,2,2-trifluoroethyl)amino)propan-2-yl)phenyl)amino)-3-oxopropan-2-yl)-1-(2-(3,3-difluoroazetidin-1-yl)ethyl)-1H-pyrazole-5-carboxamide]"
16,100 to 1000 nM,"C[C@H](C(=O)NCC(F)(F)F)c1ccc(NC(=O)[C@@H](NC(=O)c2ccnn2CCn2ccnc2)C(C2CC2)C2CC2)c(F)c1 [Compound 95, -(2-(1H-imidazol-1-yl)ethyl)-N-((S)-1,1-dicyclopropyl-3-((2-fluoro-4-((S)-1-oxo-1-((2,2,2-trifluoroethyl)amino)propan-2-yl)phenyl)amino)-3-oxopropan-2-yl)-1H-pyrazole-5-carboxamide]"
17,> 1000 nM,"CC(C)n1nccc1C(=O)N[C@H](C(=O)Nc1ccc([C@H](C)C(=O)NCC(F)(F)CN)cc1F)C(C1CC1)C1CC1 [Compound 100, N-((S)-1-((4-((S)-1-((3-amino-2,2-difluoropropyl)amino)-1-oxopropan-2-yl)-2-fluorophenyl)amino)-3,3-dicyclopropyl-1-oxopropan-2-yl)-1-isopropyl-1H-pyrazole-5-carboxamide]"
18,> 1000 nM,"CC(C)n1nccc1C(=O)N[C@H](C(=O)Nc1ccc([C@H](C)C(=O)N2CCNCC2C(F)(F)F)cc1F)C(C1CC1)C1CC1 (stereo partly drawn) [Compound 101, N-((2S)-1,1-dicyclopropyl-3-((2-fluoro-4-((2S)-1-oxo-1-(2-(trifluoromethyl)piperazin-1-yl)propan-2-yl)phenyl)amino)-3-oxopropan-2-yl)-1-isopropyl-1 H-pyrazole-5-carboxamide]"
19,> 1000 nM,"C[C@H](C(=O)N(C)CC(F)(F)F)c1ccc(NC(=O)[C@@H](Nc2nccn3nccc23)C(C2CC2)C2CC2)c(F)c1 [Compound 106, (S)-3,3-dicyclopropyl-N-(2-fluoro-4-((S)-1-(methyl(2,2,2-trifluoroethyl)amino)-1-oxopropan-2-yl)phenyl)-2-(pyrazolo[1,5-a]pyrazin-4-ylamino)propenamide]"
20,100 to 1000 nM,"CC(C)n1nccc1C(=O)N[C@H](C(=O)Nc1ccc(C(C)(C)C(=O)NCC(F)(F)F)cc1F)C(C1CC1)C1CC1 [Compound 107, (S)-N-(1.1-dicyclopropyl-3-((2-fluoro-4-(2-methyl-1-oxo-1-((2,2,2-trifluoroethyl)amino)propan-2-yl)phenyl)amino)-3-oxopropan-2-yl)-1-isopropyl-1H-pyrazole-5-carboxamide]"
21,< 100 nM,"CCc1cc(NC(=O)[C@@H](NC(=O)c2ccnn2C(C)C)C(C2CC2)C2CC2)c(F)cc1[C@H](C)C(=O)NCC(F)(F)F [Compound 111, N-((S)-1,1-dicyclopropyl-3-((5-ethyl-2-fluoro-4-((S)-1-oxo-1-((2,2,2-trifluoroethyl)amino)propan-2-yl)phenyl)amino)-3-oxopropan-2-yl)-1-isopropyl-1H-pyrazole-5-carboxamide]"
22,100 to 1000 nM,"CCc1cc(NC(=O)[C@@H](NC(=O)c2ccnn2C(C)C)C(C2CC2)C2CC2)c(F)cc1[C@@H](C)C(=O)NCC(F)(F)F [Compound 112, N-((S)-1,1-dicyclopropyl-3-((5-ethyl-2-fluoro-4-((R)-1-oxo-1-((2,2,2-trifluoroethyl)amino)propan-2-yl)phenyl)amino)-3-oxopropan-2-yl)-1-isopropyl-1H-pyrazole-5-carboxamide]"
23,> 1000 nM,"CCCNC(=O)Cc1ccc(NC(=O)[C@@H](NC(=O)c2ccnn2CC)C2CCCCCC2)c(F)c1 [Compound 114, (S)-N-(1-cycloheptyl-2-((2-fluoro-4-(2-oxo-2-(propylamino)ethyl)phenyl)amino)-2-oxoethyl)-1-ethyl-1H-pyrazole-5-carboxamide]"
